Test results as given in patent US12447156B2, “Treating progressive familial intrahepatic cholestasis (PFIC) with IBAT inhibitors” (ALBIREO AB, priority 2020, dated 2025).
≈ marks a conversion by molar mass, not a printed value.

Tests used:
[1] = tested on: children with PFIC1 or PFIC2; assay: PEDFIC 1: quality of life (PedsQL and PedsQL Family Impact Module); assay type: in vivo, human
Experimental: Study design and eligibility was as follows. In PEDFIC 1, patients were randomized 1:1:1 to receive oral, once-daily placebo, odevixibat 40 μg/kg/day, or odevixibat 120 μg/kg/day for 24 weeks; patients who completed 24 weeks of treatment could enroll in an open-label extension. Patients between the ages of 6 months and 18 years with a diagnosis of PFIC1 or PFIC2 were eligible for the study if they had elevated serum bile acid levels (defined as ≥100 μmol/L averaged from 2 samples taken prior to randomization, ≥7 days apart) and significant pruritus as reported by caregivers (average score ≥2 on a scale of 0-4 in the 2 weeks prior to randomization using an observer-reported outcome instrument).
A change from baseline to week 24 for the Pediatric QoL Inventory (PedsQL) questionnaire was assessed as an exploratory endpoint. Caregivers of patients ≥2 years old completed the PedsQL questionnaire, which assessed patient functioning in physical, emotional, social, and school domains; the output is a score between 0 and 100, where higher scores indicate better functioning and a higher change from baseline indicates an improvement in QoL, In addition, caregivers completed the PedsQL Family Impact Module, which assesses physical, emotional, social, and cognitive functioning as well as communication, worry, daily activities, and family relationship domains, also on a scale of 0 to 100. Total scores at baseline and at week 24 for all treatment groups as well as mean changes in scores from baseline to week 24 are presented for both odevixibat doses combined vs placebo; these are summarized descriptively.

children with PFIC = assay: PEDFIC 1: treatment responders in analysis of pretreatment serum bile acid parameters; assay type: in vivo, human
Experimental: This analysis included children with PFIC aged 0.5-18 years with elevated sBAs and history of significant pruritus who were treated with odevixibat 40 μg/kg/day (n=23) or 120 μg/kg/day (n=19) in […] 1. Pretreatment sBA composition was analyzed using liquid chromatography-tandem mass spectrometry, quantifying serum concentrations of total BAs and primary (cholate, chenodeoxycholate) and secondary (deoxycholate, lithocholate) BAs. sBA concentrations are presented below including and excluding the contribution from ursodeoxycholate (UDCA). Pretreatment serum concentrations of 7α-hydroxy-4-cholesten-3-one (C4) were also quantified. Pretreatment parameters were analysed in treatment responders (Rs; i.e., patients with sBAs≤70 μmol/L or reduced ≥70% and/or a ≥1-point drop in observer-reported pruritus score from baseline to end of treatment) vs nonresponders (NRs).

patients with PFIC = assay: Pooled PEDFIC 1/2 (up to 72 weeks): serum bile acids, pruritus and sleep parameters, correlations, responders; assay type: in vivo, human
Experimental: Methods: PEDFIC 1 was a randomized, double-blind study in children with PFIC1 or PFIC2; patients received either once-daily placebo, odevixibat 40 μg/kg, or odevixibat 120 μg/k g for 24 weeks. PEDFIC 2 is an ongoing, 72 week extension study in patients with any type of PFIC in which all patients receive odevixibat 120 μg/kg/day. In both PEDFIC 1 and PEDFIC 2, eligible patients had elevated serum bile acids and significant pruritus at screening. Here, patient pruritus and sleep-related data (including tiredness during the day) were included, which were evaluated twice daily by caregivers using the validated PRUCISION scale via an electronic diary. Pruritus and tiredness responses range from 0 to 4, with higher scores indicating worse symptoms; other sleep assessments include questions with Yes/No response s. Correlations between percentage change from baseline in serum bile acids and change from baseline in observer-reported diary data (pruritus, sleep characteristics) were assessed as post hoc analyses and are summarized with Pearson coefficient s (r).

[2] = Solubility of odevixibat in water; assay type: physicochemical; conditions: pH 7, 37° C.
Description: It is desirable that the use of organic solvents in the preparation of the formulation is avoided. In some embodiments, water is used as the solvent for the preparation of the formulation. […] Because of this low solubility in water, aqueous suspensions of odevixibat can contain larger agglomerates of odevixibat, which may lead to an uneven distribution of the active pharmaceutical ingredient on the cores, i.e. the cores may contain different amounts of odevixibat, which in turn impacts dose uniformity. Accordingly, in some embodiments, the aqueous suspension of odevixibat is homogeneous. In some embodiments, a homogeneous aqueous suspension of odevixibat is sprayed onto the cores.

[3] = PEDFIC 1, all doses, placebo 7.9
[4] = Week 24, 120 μg/kg/day (n = 15)

## CCCCC1(CCCC)CN(c2ccccc2)c2cc(SC)c(OCC(=O)N[C@@H](C(=O)N[C@@H](CC)C(=O)O)c3ccc(O)cc3)cc2S(=O)(=O)N1 [Odevixibat, 1,1-dioxo-3,3-dibutyl-5-phenyl-7-methylthio-8-(N-{(R)-α-[N-((S)-1-carboxypropyl)carbamoyl]-4-hydroxybenzyl}carbamoylmethoxy)-2,3,4,5-tetrahydro-1,2,5-benzothiadiazepine]
[1]; PEDFIC 1, all doses, placebo 0.5
  PedsQL total score, mean change from baseline to week 24: 7.8
[1]; PEDFIC 1, all doses, placebo 2.1
  PedsQL Family Impact Module Family relationships, mean change from baseline to week 24: 10.9
[1]; PEDFIC 1, all doses, placebo 3.2
  PedsQL Family Impact Module Cognitive, mean change from baseline to week 24: 16.4
[1]; PEDFIC 1, all doses, placebo 5.6
  PedsQL Family Impact Module Total score, mean change from baseline to week 24: 14.5
[1]; [3]
  PedsQL Family Impact Module Emotional, mean change from baseline to week 24: 13.4
  PedsQL Family Impact Module Worry, mean change from baseline to week 24: 12.8
[1]; PEDFIC 1, all doses, placebo 8.1
  PedsQL Family Impact Module Physical, mean change from baseline to week 24: 18.9
[1]; PEDFIC 1, all doses, placebo 8.5
  PedsQL Family Impact Module Social, mean change from baseline to week 24: 13.5
[1]; PEDFIC 1, all doses, placebo 9.3
  PedsQL Family Impact Module Daily activities, mean change from baseline to week 24: 21.1
[1]; PEDFIC 1, all doses, placebo 13.5
  PedsQL Emotional functioning, mean change from baseline to week 24: 14.1
[1]; PEDFIC 1, all doses, placebo −1.0
  PedsQL Social functioning, mean change from baseline to week 24: 3.6
[1]; PEDFIC 1, all doses, placebo −4.4
  PedsQL Family Impact Module Communication, mean change from baseline to week 24: 8.3
[1]; PEDFIC 1, all doses, placebo −5.3
  PedsQL school functioning, mean change from baseline to week 24: 2.3
[1]; PEDFIC 1, all doses, placebo −5.9
  PedsQL Physical functioning, mean change from baseline to week 24: 7.8
[1]; Week 24, 40 μg/kg/day (n = 19)
  PedsQL Family Impact Module Cognitive functioning, Mean (SE): 65.3 (4.9)
  PedsQL Family Impact Module Communication, Mean (SE): 57.0 (5.6)
  PedsQL Family Impact Module Daily activities, Mean (SE): 50.9 (6.1)
  PedsQL Family Impact Module Emotional functioning, Mean (SE): 55.8 (5.6)
  PedsQL Family Impact Module Family relationships, Mean (SE): 68.7 (5.9)
  PedsQL Family Impact Module Physical functioning, Mean (SE): 57.0 (5.7)
  PedsQL Family Impact Module Social functioning, Mean (SE): 61.8 (6.4)
  PedsQL Family Impact Module Total score, Mean (SE): 58.4 (4.7)
  PedsQL Family Impact Module Worry, Mean (SE): 47.9 (5.3)
[1]; Week 24, 40 μg/kg/day, n 9
  PedsQL School functioning, Mean (SE): 53.2 (5.2)
[1]; Week 24, 40 μg/kg/day, n 13
  PedsQL Emotional functioning, Mean (SE): 54.6 (4.7)
  PedsQL Physical functioning, Mean (SE): 56.3 (4.0)
  PedsQL Social functioning, Mean (SE): 63.1 (6.4)
  PedsQL Total score, Mean (SE): 56.8 (4.0)
[1]; [4]
  PedsQL Family Impact Module Cognitive functioning, Mean (SE): 67.7 (6.2)
  PedsQL Family Impact Module Communication, Mean (SE): 68.9 (5.6)
  PedsQL Family Impact Module Daily activities, Mean (SE): 54.4 (8.1)
  PedsQL Family Impact Module Emotional functioning, Mean (SE): 63.0 (5.9)
  PedsQL Family Impact Module Family relationships, Mean (SE): 72.7 (5.6)
  PedsQL Family Impact Module Physical functioning, Mean (SE): 63.3 (5.6)
  PedsQL Family Impact Module Social functioning, Mean (SE): 64.6 (7.6)
  PedsQL Family Impact Module Total score, Mean (SE): 63.5 (5.3)
  PedsQL Family Impact Module Worry, Mean (SE): 52.0 (5.8)
[1]; Week 24, 120 μg/kg/day, n 10
  PedsQL School functioning, Mean (SE): 63.3 (7.6)
[1]; Week 24, 120 μg/kg/day, n 11
  PedsQL Emotional functioning, Mean (SE): 59.6 (6.9)
  PedsQL Physical functioning, Mean (SE): 56.8 (8.7)
  PedsQL Social functioning, Mean (SE): 65.9 (8.6)
  PedsQL Total score, Mean (SE): 60.7 (7.0)
[1]; Week 24, All Doses (n = 34)
  PedsQL Family Impact Module Cognitive functioning, Mean (SE): 66.3 (3.8)
  PedsQL Family Impact Module Communication, Mean (SE): 62.3 (4.1)
  PedsQL Family Impact Module Daily activities, Mean (SE): 52.5 (4.9)
  PedsQL Family Impact Module Emotional functioning, Mean (SE): 59.0 (4.1)
  PedsQL Family Impact Module Family relationships, Mean (SE): 70.4 (4.1)
  PedsQL Family Impact Module Physical functioning, Mean (SE): 59.8 (4.0)
  PedsQL Family Impact Module Social functioning, Mean (SE): 63.1 (4.8)
  PedsQL Family Impact Module Total score, Mean (SE): 60.6 (3.5)
  PedsQL Family Impact Module Worry, Mean (SE): 49.7 (3.9)
[1]; Week 24, All Doses, n 19
  PedsQL School functioning, Mean (SE): 58.5 (4.7)
[1]; Week 24, All Doses, n 24
  PedsQL Emotional functioning, Mean (SE): 56.9 (4.0)
  PedsQL Physical functioning, Mean (SE): 56.5 (4.4)
  PedsQL Social functioning, Mean (SE): 64.4 (5.1)
  PedsQL Total score, Mean (SE): 58.6 (3.8)
Children with PFIC; PEDFIC 1, 40 μg/kg/day
  proportion of treatment responders (sBAs ≤70 μmol/L or reduced ≥70% and/or ≥1-point drop in pruritus score): 16/23
Children with PFIC; PEDFIC 1, dose groups combined, 24/42
  proportion of treatment responders (sBAs ≤70 μmol/L or reduced ≥70% and/or ≥1-point drop in pruritus score): 57%
Patients with PFIC; pooled PEDFIC 1/2, 18/84 patients
  overall incidence of any event of diarrhea: 21%
Patients with PFIC; pooled PEDFIC 1/2, 71 of 84 patients, up to 72 weeks
  patients with any TEAE: 85%
Patients with PFIC; pooled PEDFIC 1/2, 84 patients
  TEAEs mild or moderate in severity: 90%
  serious drug-related TEAEs or deaths: No serious drug-related TEAEs or deaths occurred
Patients with PFIC; pooled PEDFIC 1/2, during odevixibat treatment (up to 72 weeks)
  patients who met criteria for serum bile acid response: approximately 40%
Patients with PFIC; pooled PEDFIC 1/2, n 32, baseline 246 μmol/L
  Serum bile acids, Change From Baseline to Weeks 49-72, Mean: −53% (9%)
Patients with PFIC; pooled PEDFIC 1/2, n 34, baseline 2.3
  Tiredness score, Change From Baseline to Weeks 49-72, Mean (SE): −1.2 (0.2)
Patients with PFIC; pooled PEDFIC 1/2, n 34, baseline 2.8
  Pruritus score, Change From Baseline to Weeks 49-72, Mean (SE): −1.5 (0.2)
Patients with PFIC; pooled PEDFIC 1/2, n 34, baseline 8
  Number of awakenings, Change From Baseline to Weeks 49-72, Mean (SE): −7 (3)
Patients with PFIC; pooled PEDFIC 1/2, n 34, baseline 24
  Days taking medications to induce sleep, Change From Baseline to Weeks 49-72, Mean (SE): −3 (4) %
Patients with PFIC; pooled PEDFIC 1/2, n 34, baseline 38
  Days with scratching associated with bleeding, Change From Baseline to Weeks 49-72, Mean (SE): −21 (7) %
Patients with PFIC; pooled PEDFIC 1/2, n 34, baseline 67
  Days patient slept with caregiver, Change From Baseline to Weeks 49-72, Mean (SE): −38 (8) %
Patients with PFIC; pooled PEDFIC 1/2, n 34, baseline 75
  Days patient needed soothing, Change From Baseline to Weeks 49-72, Mean (SE): −48 (9) %
Patients with PFIC; pooled PEDFIC 1/2, n 34, baseline 78
  Days patient needed help falling asleep, Change From Baseline to Weeks 49-72, Mean (SE): −55 (8) %
Patients with PFIC; pooled PEDFIC 1/2, up to 72 weeks
  patients achieving a treatment response (serum bile acid and/or pruritus criteria): approximately 60%
Patients with PFIC; up to 72 weeks of odevixibat treatment
  tolerability: generally well tolerated
[2]
  solubility: ~30 µg/mL (≈ 40.5 µM)
